Values quoted from earlier work as cited in patent US6809181B2, “Human beta-defensin-3 (HBD-3), a highly cationic beta-defensin antimicrobial peptide” (University of Iowa Research Foundation, priority 2000, dated 2004).
≈ marks a conversion by molar mass, not a printed value. Where two headings read alike, the source gives them in different places.

Columns and labels:
[1] = system: Bordetella bronchiseptica; details: n=11, r8, cited from earlier work
Bordetella parapertussis = details: n=46; r9; unit assumed; cited from earlier work
[2] = system: Branhamella (Moraxella) catarrhalis; details: n=20, unit assumed, cited from earlier work
[3] = system: Branhamella (Moraxella) catarrhalis (non β-lactamase producer); details: cited from earlier work
Campylobacter jejuni = details: cited from earlier work; for MIC50 / MIC90: unit assumed
Enterococcus spp. = details: n=35, r52, cited from earlier work
[4] = system: Haemophilus influenzae (non β-lactamase producer); details: n=137; r58; cited from earlier work
Listeria monocytogenes = details: cited from earlier work; for MIC50 / MIC90: unit assumed
[5] = system: Neisseria gonorrhoeae (β-lactamase producer); details: cited from earlier work
Staphylococcus aureus = details: unit assumed, cited from earlier work
[6] = system: Staphylococcus aureus (penicillin susceptible); details: cited from earlier work; for MIC50 / MIC90: unit assumed
[7] = system: Staphylococcus aureus (methicillin susceptible); details: unit assumed, cited from earlier work
[8] = system: Staphylococcus epidermidis; details: n=50; r120; unit assumed; cited from earlier work
Streptococcus spp. = details: cited from earlier work; for MIC50 / MIC90: unit assumed

Structure (SMILES): CC[C@H]1OC(=O)[C@H](C)[C@@H](O[C@H]2C[C@@](C)(OC)[C@@H](O)[C@H](C)O2)[C@H](C)[C@@H](O[C@@H]2O[C@H](C)C[C@H](N(C)C)[C@H]2O)[C@](C)(O)C[C@@H](C)C(=O)[C@H](C)[C@@H](O)[C@]1(C)O [ERYTHROMYCIN, erythromycin]
- Range [1]: 4-32
- MIC50 ([1]; unit assumed): 8 µg/mL (≈ 10.9 µM)
- MIC90 ([1]; unit assumed): 32 µg/mL (≈ 43.6 µM)
- MIC50 (Bordetella parapertussis): 0.25 µg/mL (≈ 0.341 µM)
- MIC50 ([2]; r13): 0.25 µg/mL (≈ 0.341 µM)
- MIC50 ([2]; r15): 0.25 µg/mL (≈ 0.341 µM)
- MIC90 ([2]; r15): 1 µg/mL (≈ 1.36 µM)
- Range ([3]; n=14, r23): 0.06-1
- Range ([3]; n=16, r26): 0.015-1
- Range ([3]; n=40, r17): 0.06-0.5
- MIC50 (Campylobacter jejuni; n=16, r42): 0.25 µg/mL (≈ 0.341 µM)
- MIC90 (Campylobacter jejuni; n=16, r42): 2 µg/mL (≈ 2.73 µM)
- Range (Campylobacter jejuni; n=25, r41): 0.5-8
- MIC50 (Campylobacter jejuni; n=25, r41): 1 µg/mL (≈ 1.36 µM)
- MIC90 (Campylobacter jejuni; n=25, r41): 4 µg/mL (≈ 5.45 µM)
- Range (Enterococcus spp.): 0.06-32
- MIC50 (Enterococcus spp.; unit assumed): 2 µg/mL (≈ 2.73 µM)
- MIC90 (Enterococcus spp.; unit assumed): 32 µg/mL (≈ 43.6 µM)
- Range [4]: 0.06-8
- Range (Listeria monocytogenes; n=13, r74): 0.5-1
- MIC50 (Listeria monocytogenes; n=13, r74): 0.5 µg/mL (≈ 0.681 µM)
- MIC90 (Listeria monocytogenes; n=13, r74): 0.5 µg/mL (≈ 0.681 µM)
- MIC50 (Listeria monocytogenes; n=16, r75): 0.25 µg/mL (≈ 0.341 µM)
- MIC90 (Listeria monocytogenes; n=16, r75): 1 µg/mL (≈ 1.36 µM)
- Range (Listeria monocytogenes; n=65, r76): 0.06-32
- MIC90 (Listeria monocytogenes; n=65, r76): 32 µg/mL (≈ 43.6 µM)
- Range ([5]; n=12, r86): 0.03-4
- Range ([5]; n=17, r88): 1-4
- MIC90 (Staphylococcus aureus; n=44, r92): 0.5 µg/mL (≈ 0.681 µM)
- MIC50 (Staphylococcus aureus; n=100, r93): 0.5 µg/mL (≈ 0.681 µM)
- MIC90 (Staphylococcus aureus; n=100, r93): 4 µg/mL (≈ 5.45 µM)
- MIC50 ([6]; n=20, r94): 0.5 µg/mL (≈ 0.681 µM)
- MIC90 ([6]; n=20, r94): 0.5 µg/mL (≈ 0.681 µM)
- Range ([6]; n=35, r96): 0.06-32
- MIC50 ([6]; n=35, r96): 0.25 µg/mL (≈ 0.341 µM)
- MIC90 ([6]; n=35, r96): 0.5 µg/mL (≈ 0.681 µM)
- MIC50 ([7]; n=20, r104): 0.5 µg/mL (≈ 0.681 µM)
- MIC90 ([7]; n=20, r104): 0.5 µg/mL (≈ 0.681 µM)
- MIC50 ([7]; n=28, r100): 0.25 µg/mL (≈ 0.341 µM)
- MIC90 ([7]; n=28, r100): 0.5 µg/mL (≈ 0.681 µM)
- MIC50 ([7]; n=97, r102): 0.25 µg/mL (≈ 0.341 µM)
- MIC50 [8]: 64 µg/mL (≈ 87.2 µM)
- Range (Streptococcus spp.; n=22, r135): 0.015-0.25
- MIC50 (Streptococcus spp.; n=22, r135): 0.03 µg/mL (≈ 0.0409 µM)
- MIC90 (Streptococcus spp.; n=22, r135): 0.06 µg/mL (≈ 0.0818 µM)
- Range (Streptococcus spp.; n=107, r136): 0.004-2
- MIC50 (Streptococcus spp.; n=107, r136): 0.03 µg/mL (≈ 0.0409 µM)
- MIC90 (Streptococcus spp.; n=107, r136): 1 µg/mL (≈ 1.36 µM)
